How the values were obtained:
Experiment in all cases: Kinase selectivity, scanMAX Kinase assay panel (DiscoverX), % control at 1 uM
Format in all cases: binding
[1] = target: T1, scanMAX Kinase assay panel (Homo sapiens, UniProt Q8IY84); conditions: NIM1; 1 uM; read-out: Percent Control (%)
T1 construct: purchased DiscoverX
In short: (§1)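 A single concentration of 1 uM, in DMSO, is applied across the kinase panel. Activity against an individual enzyme is assigned where % control is less than 35.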

[2] = target: T2, scanMAX Kinase assay panel (Homo sapiens, UniProt Q9BQI3); conditions: EIF2AK1; 1 uM; read-out: Percent Control (%)
T2 construct: purchased DiscoverX
T2 sequence (Q9BQI3 whole entry): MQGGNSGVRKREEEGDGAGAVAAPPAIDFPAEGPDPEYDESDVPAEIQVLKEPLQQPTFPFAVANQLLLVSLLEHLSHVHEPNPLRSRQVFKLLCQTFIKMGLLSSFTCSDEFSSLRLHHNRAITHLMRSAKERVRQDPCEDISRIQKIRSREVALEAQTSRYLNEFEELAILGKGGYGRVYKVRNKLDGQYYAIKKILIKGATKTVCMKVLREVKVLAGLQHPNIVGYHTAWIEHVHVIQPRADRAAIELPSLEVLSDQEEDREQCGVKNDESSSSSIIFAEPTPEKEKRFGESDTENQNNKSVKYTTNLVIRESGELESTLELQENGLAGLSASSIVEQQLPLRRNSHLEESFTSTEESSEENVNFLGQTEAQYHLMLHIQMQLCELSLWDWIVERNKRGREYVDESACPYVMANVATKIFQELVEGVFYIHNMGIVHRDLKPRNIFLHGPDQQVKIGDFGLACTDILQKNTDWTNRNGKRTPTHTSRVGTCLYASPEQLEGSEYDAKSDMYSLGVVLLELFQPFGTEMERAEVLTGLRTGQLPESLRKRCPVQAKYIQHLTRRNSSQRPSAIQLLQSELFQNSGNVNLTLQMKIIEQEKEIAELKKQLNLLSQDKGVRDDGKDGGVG
In short: as §1

[3] = target: T3, scanMAX Kinase assay panel (Homo sapiens, UniProt Q13131); conditions: AMPK-alpha1; 1 uM; read-out: Percent Control (%)
T3 construct: purchased DiscoverX
T3 sequence (Q13131 whole entry): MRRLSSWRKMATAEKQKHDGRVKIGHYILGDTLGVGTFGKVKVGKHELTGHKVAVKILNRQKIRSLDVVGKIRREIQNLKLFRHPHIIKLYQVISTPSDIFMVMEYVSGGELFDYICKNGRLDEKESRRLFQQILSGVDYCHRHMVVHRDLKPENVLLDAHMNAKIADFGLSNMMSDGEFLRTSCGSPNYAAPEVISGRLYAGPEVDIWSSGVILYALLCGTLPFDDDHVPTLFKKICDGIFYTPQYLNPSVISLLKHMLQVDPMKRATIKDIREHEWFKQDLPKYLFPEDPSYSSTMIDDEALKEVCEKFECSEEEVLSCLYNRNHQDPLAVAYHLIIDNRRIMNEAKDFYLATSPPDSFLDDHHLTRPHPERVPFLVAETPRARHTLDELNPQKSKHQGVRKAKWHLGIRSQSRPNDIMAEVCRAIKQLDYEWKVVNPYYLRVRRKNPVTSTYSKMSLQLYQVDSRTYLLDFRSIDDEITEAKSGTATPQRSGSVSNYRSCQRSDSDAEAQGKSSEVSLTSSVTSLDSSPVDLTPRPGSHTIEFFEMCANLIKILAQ
In short: as §1

[4] = target: T4, scanMAX Kinase assay panel (Homo sapiens, UniProt Q7L7X3); conditions: TAOK1; 1 uM; read-out: Percent Control (%)
T4 construct: purchased DiscoverX
T4 sequence (Q7L7X3 1-1001): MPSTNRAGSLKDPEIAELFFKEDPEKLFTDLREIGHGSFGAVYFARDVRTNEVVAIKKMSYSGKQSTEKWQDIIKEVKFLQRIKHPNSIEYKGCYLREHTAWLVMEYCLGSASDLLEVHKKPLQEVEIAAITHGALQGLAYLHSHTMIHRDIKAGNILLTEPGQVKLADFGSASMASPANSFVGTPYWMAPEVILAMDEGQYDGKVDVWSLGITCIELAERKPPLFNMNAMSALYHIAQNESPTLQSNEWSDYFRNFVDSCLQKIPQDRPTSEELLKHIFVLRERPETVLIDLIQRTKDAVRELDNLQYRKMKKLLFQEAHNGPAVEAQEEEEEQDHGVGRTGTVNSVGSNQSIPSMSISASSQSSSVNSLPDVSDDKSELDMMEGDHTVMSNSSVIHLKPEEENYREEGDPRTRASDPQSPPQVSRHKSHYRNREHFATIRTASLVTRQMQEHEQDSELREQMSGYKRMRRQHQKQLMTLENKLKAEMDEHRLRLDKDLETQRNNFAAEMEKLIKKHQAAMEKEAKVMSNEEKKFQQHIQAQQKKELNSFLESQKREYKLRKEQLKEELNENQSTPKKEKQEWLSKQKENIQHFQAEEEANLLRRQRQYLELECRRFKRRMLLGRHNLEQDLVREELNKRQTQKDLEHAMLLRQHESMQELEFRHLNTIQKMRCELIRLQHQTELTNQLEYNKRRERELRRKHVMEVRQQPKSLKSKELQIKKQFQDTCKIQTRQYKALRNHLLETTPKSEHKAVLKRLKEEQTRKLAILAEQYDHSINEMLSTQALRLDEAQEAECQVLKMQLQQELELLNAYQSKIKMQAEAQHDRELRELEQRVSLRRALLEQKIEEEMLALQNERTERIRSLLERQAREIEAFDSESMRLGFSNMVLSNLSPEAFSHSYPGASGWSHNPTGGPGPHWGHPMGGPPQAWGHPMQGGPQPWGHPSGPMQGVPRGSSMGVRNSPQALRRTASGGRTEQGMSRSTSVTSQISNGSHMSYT
In short: as §1

[5] = target: T5, scanMAX Kinase assay panel (Homo sapiens, UniProt Q6DT37); conditions: DMPK2; 1 uM; read-out: Percent Control (%)
T5 construct: purchased DiscoverX
In short: as §1

[6] = target: T6, scanMAX Kinase assay panel (Homo sapiens, UniProt Q15139); conditions: PRKD1; 1 uM; read-out: Percent Control (%)
T6 construct: purchased DiscoverX
T6 sequence (Q15139 1-912): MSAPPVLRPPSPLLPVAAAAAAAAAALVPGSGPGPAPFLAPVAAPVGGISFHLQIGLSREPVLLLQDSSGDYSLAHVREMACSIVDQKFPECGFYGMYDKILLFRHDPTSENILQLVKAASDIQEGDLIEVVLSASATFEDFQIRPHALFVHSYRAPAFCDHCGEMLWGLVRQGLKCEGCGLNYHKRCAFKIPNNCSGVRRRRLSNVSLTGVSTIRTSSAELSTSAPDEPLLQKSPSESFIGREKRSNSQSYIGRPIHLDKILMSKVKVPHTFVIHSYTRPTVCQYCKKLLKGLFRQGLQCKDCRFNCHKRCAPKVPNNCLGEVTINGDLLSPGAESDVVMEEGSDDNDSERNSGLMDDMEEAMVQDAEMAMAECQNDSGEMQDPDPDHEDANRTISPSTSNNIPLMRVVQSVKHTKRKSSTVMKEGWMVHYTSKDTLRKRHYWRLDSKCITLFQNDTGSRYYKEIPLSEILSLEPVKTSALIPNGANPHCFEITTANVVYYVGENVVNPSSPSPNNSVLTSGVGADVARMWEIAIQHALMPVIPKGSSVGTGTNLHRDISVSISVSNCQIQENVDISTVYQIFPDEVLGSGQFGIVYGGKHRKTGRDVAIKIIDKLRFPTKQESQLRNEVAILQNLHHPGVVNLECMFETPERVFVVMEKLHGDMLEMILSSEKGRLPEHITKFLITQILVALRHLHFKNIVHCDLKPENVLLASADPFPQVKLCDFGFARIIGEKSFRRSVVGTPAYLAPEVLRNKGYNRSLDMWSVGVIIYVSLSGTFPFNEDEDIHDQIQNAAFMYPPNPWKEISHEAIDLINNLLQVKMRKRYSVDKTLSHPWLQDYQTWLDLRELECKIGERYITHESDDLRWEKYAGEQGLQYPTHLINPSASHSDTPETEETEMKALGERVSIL
In short: as §1

[7] = target: T7, scanMAX Kinase assay panel (Homo sapiens, UniProt Q02750); conditions: MEK1; 1 uM; read-out: Percent Control (%)
T7 construct: purchased DiscoverX
T7 sequence (Q02750 whole entry): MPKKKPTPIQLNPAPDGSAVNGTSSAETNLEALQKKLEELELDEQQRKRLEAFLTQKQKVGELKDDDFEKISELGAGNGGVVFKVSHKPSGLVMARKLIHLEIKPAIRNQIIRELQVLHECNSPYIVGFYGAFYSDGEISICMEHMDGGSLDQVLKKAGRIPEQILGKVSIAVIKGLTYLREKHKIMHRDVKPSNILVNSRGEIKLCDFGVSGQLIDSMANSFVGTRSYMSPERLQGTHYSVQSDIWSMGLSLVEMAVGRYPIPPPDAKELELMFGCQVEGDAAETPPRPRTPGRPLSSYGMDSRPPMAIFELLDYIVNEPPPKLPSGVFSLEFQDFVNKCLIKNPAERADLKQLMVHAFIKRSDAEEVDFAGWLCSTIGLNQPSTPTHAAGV
In short: as §1

[8] = target: T8, scanMAX Kinase assay panel (Homo sapiens, UniProt Q9Y5S2); conditions: MRCKB; 1 uM; read-out: Percent Control (%)
T8 construct: purchased DiscoverX
T8 sequence (Q9Y5S2 whole entry): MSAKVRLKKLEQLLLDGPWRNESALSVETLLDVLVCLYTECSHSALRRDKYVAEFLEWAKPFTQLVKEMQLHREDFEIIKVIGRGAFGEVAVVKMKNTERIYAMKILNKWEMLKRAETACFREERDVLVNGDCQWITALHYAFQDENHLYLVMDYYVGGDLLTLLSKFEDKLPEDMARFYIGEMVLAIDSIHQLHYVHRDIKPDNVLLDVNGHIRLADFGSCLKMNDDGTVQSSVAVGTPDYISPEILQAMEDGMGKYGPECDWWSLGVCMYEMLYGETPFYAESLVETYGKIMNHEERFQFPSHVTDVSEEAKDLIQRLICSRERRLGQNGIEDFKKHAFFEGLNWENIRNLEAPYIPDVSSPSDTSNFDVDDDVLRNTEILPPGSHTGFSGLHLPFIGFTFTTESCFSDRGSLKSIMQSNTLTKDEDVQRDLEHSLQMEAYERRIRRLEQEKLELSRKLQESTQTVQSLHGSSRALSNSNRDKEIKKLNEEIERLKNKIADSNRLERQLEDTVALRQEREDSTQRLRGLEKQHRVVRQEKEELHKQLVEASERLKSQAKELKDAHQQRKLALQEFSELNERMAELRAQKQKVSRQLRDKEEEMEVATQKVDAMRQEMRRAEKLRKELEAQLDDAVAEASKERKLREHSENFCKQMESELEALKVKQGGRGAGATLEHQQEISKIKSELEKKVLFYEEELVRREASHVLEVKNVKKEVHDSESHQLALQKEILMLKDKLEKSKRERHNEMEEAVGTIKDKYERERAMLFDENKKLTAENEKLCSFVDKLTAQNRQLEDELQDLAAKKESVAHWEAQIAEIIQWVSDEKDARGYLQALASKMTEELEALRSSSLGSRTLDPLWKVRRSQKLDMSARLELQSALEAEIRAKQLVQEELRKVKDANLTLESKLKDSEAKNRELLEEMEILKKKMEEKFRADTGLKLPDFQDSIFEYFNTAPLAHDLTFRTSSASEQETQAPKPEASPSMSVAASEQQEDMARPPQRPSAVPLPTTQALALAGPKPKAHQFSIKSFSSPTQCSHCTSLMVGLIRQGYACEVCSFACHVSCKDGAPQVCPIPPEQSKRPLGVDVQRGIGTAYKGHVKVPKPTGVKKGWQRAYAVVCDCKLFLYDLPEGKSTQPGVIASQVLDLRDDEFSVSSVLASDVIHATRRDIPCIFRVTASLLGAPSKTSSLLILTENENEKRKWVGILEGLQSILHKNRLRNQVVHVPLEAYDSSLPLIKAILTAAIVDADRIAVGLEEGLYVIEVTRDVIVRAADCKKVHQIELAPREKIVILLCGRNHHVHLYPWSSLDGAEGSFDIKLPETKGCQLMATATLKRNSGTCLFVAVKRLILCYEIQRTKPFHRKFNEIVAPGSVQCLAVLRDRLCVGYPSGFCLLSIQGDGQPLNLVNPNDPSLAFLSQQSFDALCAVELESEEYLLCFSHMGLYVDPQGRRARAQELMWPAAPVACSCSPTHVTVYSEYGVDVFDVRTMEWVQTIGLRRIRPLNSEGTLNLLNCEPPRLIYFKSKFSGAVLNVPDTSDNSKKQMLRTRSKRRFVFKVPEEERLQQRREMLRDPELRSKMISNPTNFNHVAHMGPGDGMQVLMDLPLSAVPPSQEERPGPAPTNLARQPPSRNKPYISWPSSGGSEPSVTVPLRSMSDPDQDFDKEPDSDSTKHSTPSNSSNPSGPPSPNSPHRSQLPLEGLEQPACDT
In short: as §1

T1 sequence (Q8IY84 whole entry): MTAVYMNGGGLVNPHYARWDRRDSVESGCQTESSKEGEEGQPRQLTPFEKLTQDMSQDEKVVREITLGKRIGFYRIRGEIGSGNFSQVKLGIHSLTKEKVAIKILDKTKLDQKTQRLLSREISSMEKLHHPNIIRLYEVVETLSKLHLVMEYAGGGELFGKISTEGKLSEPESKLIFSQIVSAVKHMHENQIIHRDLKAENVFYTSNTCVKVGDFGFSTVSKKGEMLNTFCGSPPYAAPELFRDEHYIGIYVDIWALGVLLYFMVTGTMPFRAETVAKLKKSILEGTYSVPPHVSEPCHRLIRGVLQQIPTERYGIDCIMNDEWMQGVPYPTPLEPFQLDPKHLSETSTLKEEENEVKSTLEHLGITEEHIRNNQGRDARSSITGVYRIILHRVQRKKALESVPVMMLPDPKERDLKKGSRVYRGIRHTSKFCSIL

Cc1ccc(C(=O)Nc2ccc(CN3CCN(C)CC3)c(C(F)(F)F)c2)cc1C#Cc1cnc2c(Nc3cnn(C)c3)cccn12 [Example 1, 4-methyl-3-((8-((1-methyl-1H-pyrazol-4-yl)amino)imidazo[1,2-a]pyridin-3-yl)ethynyl)-N-(4-((4-methylpiperazin-1-yl)methyl)-3-(trifluoromethyl)phenyl)benzamide]
remaining binding at 1 µM [1]: 92% | remaining binding at 1 µM [2]: 67% | remaining binding at 1 µM [3]: 7% | remaining binding at 1 µM [4]: 51% | remaining binding at 1 µM [5]: 100% | remaining binding at 1 µM [6]: 54% | remaining binding at 1 µM [7]: 100% | remaining binding at 1 µM [8]: 99%

Cc1cn(-c2cc(NC(=O)c3ccc(C)c(C#Cc4cnc5c(Nc6cnn(C)c6)cccn45)c3)cc(C(F)(F)F)c2)cn1 [Example 12, 4-methyl-N-(3-(4-methyl-1H-imidazol-1-yl)-5-(trifluoromethyl)phenyl)-3-((8-((1-methyl-1H-pyrazol-4-yl)amino)imidazo[1,2-a]pyridin-3-yl)ethynyl)benzamide]
remaining binding at 1 µM [1]: 100% | remaining binding at 1 µM [2]: 95% | remaining binding at 1 µM [3]: 74% | remaining binding at 1 µM [4]: 100% | remaining binding at 1 µM [5]: 92% | remaining binding at 1 µM [6]: 94% | remaining binding at 1 µM [7]: 100% | remaining binding at 1 µM [8]: 94%

Cc1ccc(NC(=O)C2(C(=O)Nc3ccc(F)cc3)CC2)cc1C#Cc1cnc2c(Nc3cnn(C(C)C)c3)cccn12 [Example 78]
remaining binding at 1 µM [1]: 100% | remaining binding at 1 µM [2]: 94% | remaining binding at 1 µM [3]: 100% | remaining binding at 1 µM [4]: 89% | remaining binding at 1 µM [5]: 100% | remaining binding at 1 µM [6]: 100% | remaining binding at 1 µM [7]: 100% | remaining binding at 1 µM [8]: 100%

Source: US10870647B2, “Imidazopyridine derivative, method for preparing same, and pharmaceutical composition containing same as active ingredient for preventing or treating cancer” (DAEGU-GYEONGBUK MEDICAL INNOVATION FOUNDATION, priority 2016, dated 2020)
